In the SangsterLogP compilation:

Assay: method code SF, from DOI: 10.1021/jm9405147, PMID: 8576915
Conditions: not given

| SMILES | logP |
| --- | --- |
| CC1=C(N2CC2)C(=O)C(Cl)=C(N2CC2)C1=O | 1.2 |
| NC1=C(Cl)C(=O)c2ccccc2C1=O | 2.08 |
| CC1=C(N2CC2)C(=O)C(CCOC(N)=O)=C(N2CC2)C1=O | 0.16 |
| NC1=CC(=O)c2ccccc2C1=O | 1.77 |
| CC1=C(N2CC2)C(=O)C(Br)=C(N2CC2)C1=O | 1.36 |

Assay: not given
Conditions: not given

| SMILES | logP |
| --- | --- |
| CC12C=CC(CCC(=O)O)(OO1)c1ccccc12 (stereo not given) | 1.19 |
| COC(=O)CCC12C=CC(CCC(=O)OC)(OO1)c1ccccc12 | 2.08 |
| COC(=O)CCC1=CC2(CCC(=O)OC)OOC1(C)c1ccccc12 (stereo not given) | 2.06 |
| COC(=O)CCC12C=CC(C)(OO1)c1ccccc12 (stereo not given) | 2.13 |
| CC12C=CC(CCS(N)(=O)=O)(OO1)c1ccccc12 (stereo not given) | 1.66 |

Assay: not given
Conditions: not given
Remark: another data set of the same source

| logP | SMILES |
| --- | --- |
| 5.12 | Clc1ccc2cc(Cl)c(Cl)cc2c1 |
| 5.77 | Clc1cc2c(Cl)cccc2c(Cl)c1Cl |
| 5.81 | Clc1cc2c(Cl)ccc(Cl)c2cc1Cl |

More lines, now with the values behind:

| SMILES | logP |
| --- | --- |
| Clc1c(Cl)c(Cl)c2c(Cl)c(Cl)c(Cl)c(Cl)c2c1Cl | 6.42 |
| Clc1ccc2ccccc2c1Cl | 4.42 |

Assay: method code SF-AS, from Frater-Schröder, M.; Alder, S.; Zbinden, G. (1976). Neurotoxic effects of pyridoxine and analogs in rats. Proc. Eur. Soc. Toxicol, 17, 277-284.
Conditions: pH 7.4

| SMILES | logD |
| --- | --- |
| CCCCN(CCCC)Cc1c(CO)cnc(C)c1O | 1.69 |
| Cc1ncc(CO)c2c1OC1=CCCCC1=C2 | 1.98 |
| Cc1ncc(CO)c(Cc2ccc(N(C)C)cc2)c1O | 0.81 |
| Cc1ncc(CO)c(COCCC(C)C)c1O | 0.83 |
| CCCCOCc1c(CO)cnc(C)c1O | 1.34 |

Assay: method code SF-AS, from DOI: 10.1021/je700381u
Conditions: pH 0.0

| logD | SMILES |
| --- | --- |
| 2.67 | O=C(O)c1ccc(Br)cc1F |
| 3.43 | O=C(O)c1cc(Br)ccc1F |
| 2.28 | O=C(O)c1ccc(Cl)cc1F |
| 3.16 | O=C(O)c1cc(Br)ccc1Cl |
| 2.63 | O=C(O)c1ccc(F)cc1Cl |

Assay: method code pH-metric titration, from DOI: 10.1002/(sici)1096-9063(199607)47:3<265::aid-ps416>3.0.co;2-f
Conditions: not given

| SMILES | logP |
| --- | --- |
| CC(C(=O)O)N(C(=O)c1ccccc1)c1ccc(F)c(Cl)c1 (racemic) | 3.09 |
| CN1CCC[C@H]1c1cccnc1 | 0.93 |
| CC(Oc1ccc(Oc2ccc(C(F)(F)F)cn2)cc1)C(=O)O (stereo not given) | 3.18 |

Same assay, conditions: pH 2.7

| SMILES | logD |
| --- | --- |
| CC(C)C1(C)N=C(c2ncccc2C(=O)O)NC1=O (stereo not given) | 0.22 |

Same assay, conditions: pH 9.0

| SMILES | logD |
| --- | --- |
| CC(Cc1ccc(C(C)(C)C)cc1)CN1C[C@@H](C)O[C@@H](C)C1 (stereo not given in full) | 4.93 |

Assay: not given
Conditions: not given
Remark: another data set of the same source

| SMILES | logP |
| --- | --- |
| CNC(=O)Oc1cc(C)cc(C)c1 | 2.38 |
| N#Cc1c(Cl)c(Cl)c(Cl)c(C#N)c1Cl | 3.8 |
| CNC(=O)Oc1ccccc1OC(C)C | 1.99 |
| Cc1ccccc1C(=O)Nc1cccc(OC(C)C)c1 | 3.5 |
| CNC(=O)Oc1ccc(C)c(C)c1 | 2.25 |

Assay: method code SF, from DOI: 10.1034/j.1399-3011.2003.00037.x, PMID: 12492901
Conditions: pH 2.0

| logD | SMILES |
| --- | --- |
| 3.25 | CCCC[C@H](Nc1ccc([N+](=O)[O-])cc1[N+](=O)[O-])C(=O)O |
| 2.09 | C[C@H](Nc1ccc([N+](=O)[O-])cc1[N+](=O)[O-])C(=O)O |
| 0.4 | CC(=O)N[C@@H](Cc1ccccc1)C(=O)O |
| 2.88 | CCCC(Nc1ccc([N+](=O)[O-])cc1[N+](=O)[O-])C(=O)O (racemic) |

Same assay, conditions: pH 11.0

| logD | SMILES |
| --- | --- |
| 0.16 | CC(=O)NC(Cc1c[nH]c2ccccc12)C(N)=O (stereo not given) |

Assay: method code SF-AS, from DOI: 10.1139/cjpp-75-12-1362, PMID: 9534947
Conditions: not given

| logP | SMILES |
| --- | --- |
| 2.91 | CC(=O)N/N=C/c1c(O)ccc2ccccc12 |
| 3.95 | O=C(N/N=C/c1c(O)ccc2ccccc12)c1ccc(O)cc1 |
| 3.41 | O=C(N/N=C/c1c(O)ccc2ccccc12)c1ccco1 |
| 4.06 | COc1ccc(C(=O)N/N=C\c2c(O)ccc3ccccc23)cc1 |
| 3.58 | O=C(N/N=C/c1c(O)ccc2ccccc12)c1ccc([N+](=O)[O-])cc1 |

Assay: method code SF-AS, from PMID: 8197227
Conditions: pH 7.4

| logD | SMILES |
| --- | --- |
| 1.4 | NC(=S)N/N=C\c1ccc2c(c1)OCO2 |
| 2.14 | O=C(NNc1nc(-c2ccccc2)cs1)c1ccc2c(c1)OCO2 |
| 1.5 | Cc1csc(NN=Cc2ccc3c(c2)OCO3)n1 |
| 1.8 | c1csc(NNCc2ccc3c(c2)OCO3)n1 |
| 0.14 | NC(=S)NNCc1ccc2c(c1)OCO2 |

Assay: method code SF, from DOI: 10.1016/0378-5173(85)90102-4
Conditions: pH 8.0

| logD | SMILES |
| --- | --- |
| 0.19 | CC(C)C[C@H](N)C(=O)OCn1ncc2c(=O)[nH]cnc21 |
| 0.72 | CCN(CC)[C@@H](C)C(=O)OCn1ncc2c(=O)[nH]cnc21 (racemic) |
| 1.27 | CCCN(CCC)CC(=O)OCn1ncc2c(=O)[nH]cnc21 |
| -0.15 | NC(C(=O)OCn1ncc2c(=O)[nH]cnc21)c1ccccc1 (stereo not given) |
| -0.49 | CN(C)CC(=O)OCn1ncc2c(=O)[nH]cnc21 |

Assay: method code SF-AS, from DOI: 10.1002/etc.5620180606
Conditions: not given

| logP | SMILES |
| --- | --- |
| 3.62 | O=[N+]([O-])c1cc(S(=O)(=O)Nc2ccccc2)ccc1Nc1ccccc1 |
| 4.44 | COc1cc(/N=N/c2c(Br)cc([N+](=O)[O-])cc2[N+](=O)[O-])c(NC(C)=O)cc1N(CCOC(C)=O)CCOC(C)=O |
| 3.74 | Cc1c(O)c(C#N)c(C)c(N=Nc2ccc(Cl)c(Cl)c2)c1O |
| 4.08 | CC(=O)CCC(C#N)Nc1ccc(N=Nc2nc3ccc([N+](=O)[O-])cc3s2)cc1 (stereo not given) |
| 5.19 | Nc1c(Oc2ccccc2)c(Oc2ccccc2)c(N)c2c1C(=O)c1ccccc1C2=O |

Assay: not given
Conditions: not given
Remark: another data set of the same source

| logP | SMILES |
| --- | --- |
| 3.18 | COc1ccc2c(c1)OCc1c-2oc2cc3c(cc12)C=CC(C)(C)O3 |
| 3.21 | COc1ccc([C@@H]2COc3cc(O)ccc3C2)c(OC)c1 |
| 2.69 | O=c1oc2cc(O)ccc2c2oc3cc(O)ccc3c12 |

Continued, compound first:

| SMILES | logP |
| --- | --- |
| CC1(C)C=Cc2cc3c(cc2O1)OC1c2ccc(O)cc2OCC31O (stereo not given) | 2.62 |
| Oc1ccc2c(c1)OC[C@H]1c3cc4c(cc3O[C@@H]21)OCO4 | 2.61 |

Assay: not given
Conditions: not given
Remark: another data set of the same source

| logP | SMILES |
| --- | --- |
| 1.99 | OCc1ccc(Cl)cc1 |
| 4.82 | O=[N+]([O-])c1cc(-c2ccccc2)ccc1Br |
| 2.19 | O=C(O)c1ccc([N+](=O)[O-])cc1Cl |
| 2.13 | O=C(O)c1cc([N+](=O)[O-])ccc1Cl |

| SMILES | logP |
| --- | --- |
| N#Cc1ccc(O)cc1 | 1.28 |

Assay: method code SF-AS, from DOI: 10.1111/j.2042-7158.1989.tb06384.x, PMID: 2576447
Conditions: pH 7.4

| logD | SMILES |
| --- | --- |
| 0.33 | CCCn1c(=O)[nH]c(=O)c2nc[nH]c21 |
| 0.84 | CCCCn1c(=O)[nH]c(=O)c2nc[nH]c21 |
| 0.52 | CCn1c(=O)n(C)c(=O)c2nc[nH]c21 |
| -0.11 | CCn1c(=O)[nH]c(=O)c2nc[nH]c21 |
| 1.29 | CCCCn1c(=O)n(C)c(=O)c2nc[nH]c21 |

Assay: method code SF-AS, from DOI: 10.1021/jm00163a043, PMID: 2153206
Conditions: pH 7.0

| logD | SMILES |
| --- | --- |
| -0.21 | O=c1[nH]c(=S)ccn1[C@H]1CC[C@@H](CO)O1 |
| 0.44 | Cc1cn([C@H]2CC[C@@H](CO)O2)c(=O)[nH]c1=S |
| -0.7 | Nc1ccn([C@H]2C=C[C@@H](CO)O2)c(=O)n1 |
| -0.07 | Cc1cn([C@H]2C[C@H](O)[C@@H](CO)O2)c(=O)[nH]c1=S |
| -1.62 | Nc1ccn(C2CC(O)C(CO)O2)c(=O)n1 (stereo not given) |

Assay: not given
Conditions: not given
Remark: another data set of the same source

| logP | SMILES |
| --- | --- |
| 3.06 | Ic1ccc2nc(-c3ccc(-c4nccs4)cc3)cn2c1 |
| 3.64 | Ic1ccc2nc(-c3ccc(-c4cnco4)cc3)cn2c1 |
| 3.12 | Ic1ccc2nc(-c3ccc(-c4ncon4)cc3)cn2c1 |
| 3.2 | Ic1ccc2nc(-c3ccc(-c4cc[nH]n4)cc3)cn2c1 |
| 4.03 | CN(C)c1ccc(-c2cn3cc(I)ccc3n2)cc1 |

Assay: method code SF, from DOI: 10.1016/j.bcp.2004.09.021, PMID: 15627482
Conditions: pH 7.0

| logD | SMILES |
| --- | --- |
| 1.01 | CCCCC1(C(=O)OCC)C(CC)C(C)C=[N+]1[O-] (stereo not given) |
| 0.69 | CCCCC1(C(=O)OCC)CCC=[N+]1[O-] (stereo not given) |
| 1.07 | CCCCC1(C(=O)OC(C)C)CCC=[N+]1[O-] (stereo not given) |
| 1.75 | CCCCOC(=O)C1(CCCC)CCC=[N+]1[O-] (stereo not given) |
| 1.36 | CCCCC1(C(=O)OC(C)(C)C)CCC=[N+]1[O-] (stereo not given) |

Assay: method code SF-AS, from DOI: 10.1016/0048-3575(87)90152-0
Conditions: not given

| logP | SMILES |
| --- | --- |
| 3.26 | CC(C)CC(=O)OCc1ccccc1 |
| 3.33 | COC(=O)C(c1ccccc1)C(C)C (stereo not given) |
| 4.41 | CC(C)[C@H](Nc1ccccc1)C(=O)OCc1ccccc1 |
| 3.18 | CC(C)CC(=O)Oc1ccccc1 |
| 3.29 | CCOC(C(=O)OCc1ccccc1)C(C)C (stereo not given) |

Assay: method code SF-GLC, from DOI: 10.1080/03086648508073361
Conditions: not given

| SMILES | logP |
| --- | --- |
| CCN(CC)P(=O)(N(CC)CC)N(CC)CC | 2.53 |
| O=P(N1CCCC1)(N1CCCC1)N1CCCC1 | 1.67 |
| CN(C)P(=O)(N1CCCC1)N1CCCC1 | 1.88 |
| CN(C)P1(=O)N(C)CCN1C | 0.02 |
| CN(C)P(=O)(N(C)C)N1CCCC1 | 0.82 |
